Ends that are not written are not given here.
Biological target: T1, immobilized ELAM-1 (Homo sapiens, UniProt P16581)
T1 construct: truncated form comprising the complete extracellular domain (amino acids 1 through 554); made in house; released with phospholipase C
T1 sequence (P16581 22-554): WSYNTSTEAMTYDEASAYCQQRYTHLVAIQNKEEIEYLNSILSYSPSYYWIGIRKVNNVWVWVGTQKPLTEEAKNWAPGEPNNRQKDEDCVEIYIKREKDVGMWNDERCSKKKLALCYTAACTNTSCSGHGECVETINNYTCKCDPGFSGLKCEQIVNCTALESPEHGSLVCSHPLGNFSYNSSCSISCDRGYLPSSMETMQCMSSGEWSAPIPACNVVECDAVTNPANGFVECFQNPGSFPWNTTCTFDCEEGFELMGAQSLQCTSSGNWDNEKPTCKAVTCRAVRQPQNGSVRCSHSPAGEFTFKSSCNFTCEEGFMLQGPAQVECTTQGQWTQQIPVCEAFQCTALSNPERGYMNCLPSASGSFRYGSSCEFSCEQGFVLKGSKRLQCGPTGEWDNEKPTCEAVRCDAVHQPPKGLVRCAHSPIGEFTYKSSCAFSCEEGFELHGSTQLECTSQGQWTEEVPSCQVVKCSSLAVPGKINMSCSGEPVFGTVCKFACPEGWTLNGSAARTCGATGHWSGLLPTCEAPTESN
Assay: cell-based
Format: cell-based
Experimental: By comparing test wells with control wells (no receptor), one can determine whether a peptide binds to ELAM-1 specifically. Peptides found to bind specifically to ELAM-1 were then synthesized as the free peptide (no phage) and tested in an HL60 cell adhesion competition assay. The competition assay was carried out similarly to the ELISA, except that labeled HL60 cells were added in addition to the peptide (the control wells were typically of at least two types: (1) no immobilized ELAM-1; and (2) no peptide; see the Examples). Peptides that block the binding of labeled HL60 cells ELAM-1 are preferred compounds of the invention. […] The assay requires HL60 cells labeled with tritiated thymidine. To label the cells, about 10 million HL60 cells are collected by centrifugation (2500 RPM for 3 minutes) and resuspended in 15 mL of DMEM/F12 plus 5% fetal calf serum containing 2 μCi/mL of tritiated thymidine (Amersham). The cells are then placed in a T75 flask and incubated at 37°C for 24 hours. The cells are then collected by centrifugation, washed twice with RPMI/HEPES/0.1% FCS, and resuspended in the same solution at a concentration of about one to two million cells per mL. […] After this incubation, aliquots were removed from each well and placed in scintillation vials; scintillation fluid was added to each vial; and the radioactivity in each aliquot was quantitated by LS counting. […]

HITWDQLWNVMN
blocking of HL60 cell binding that occurred in the absence of added compound (200000.0): over 80%
inhibition at 50 µM (HL-60, at a concentration of 50 µM, tested from 0.5 to 100 µM, Figure 2, read-out: inhibition of binding of HL60 cells): ~50%

Source: patent EP0700301B1, “PEPTIDES AND COMPOUNDS THAT BIND TO ELAM-1” (AFFYMAX TECHNOLOGIES N.V., priority 1993, dated 1994)
